Data set [1] in a line: Liver microsomal metabolic stability, human. The format is in vitro ADME. The note with it: human liver microsomes, NADPH, 37° C. As for the experimental part: (§1) Under the condition of ice bath, 1 mg of human or Mouse liver microparticles was add to PBS (1 mL) buffer, then NADPH (20 μL) was added, and incubated at 37° C. for 5 min. 10 μL of the compound to be tested was added, then suck several times with a pipette and divide into 3 aliquots of 330 μL; each and then samples were taken at 0, 15, 30, 60 and 120 min respectively. 10 μL of the solution was taken with a pipette each time and added to 490 μL of the solution containing the internal standard compound. The resulting solution was vortexed and then placed on ice, and then sampling at another time point continues. All samples were centrifuged at 10,000 rpm for 10 min, and the supernatant was taken for LC/MS testing. The metabolism of the compound in liver microsomes was calculated based on the peak area.
On the technique in general: Microsomes from liver hold many membrane-bound enzymes, among them those of drug oxidation.

A further data set has as its target T1, BTK (Homo sapiens, UniProt Q06187).
T1 construct: endogenous in cells; host or cells: Mino cells
Description: BTK degradation activity test in Mino cells (Westernblot or Elisa). The format is cell-based. To be noted: 24-72 h incubation. The method, then:
The Mino cell line cells are 0.5˜1 million/well in 6-well plates. The compounds are diluted to different concentrations, added to the plate, and after 24-72 h of incubation, the cells are collected. After the cells were lysed, the total protein concentration in each well was determined with a BCA kit. The amount of BTK is determined using the Westernblot or Elisa method.

A short description of the next data set: Mouse absorption test. Format: in vivo. To be noted: mice, intragastric 10 mg/kg, plasma. The method, then: Experimental method: mice were used as experimental animals, and drugs were administered intragastrically at 10 mg/kg (5% DMSO+5% Solutol+90% saline). The blood collection time points for intragastric administration were 0.25, 0.5, 1, 2, 4, 6, 8, and 24 h. 0.3 ml of whole blood was taken, and 0.1 ml of plasma was taken after centrifugation and analyzed by LC-MS.

The next data set concerns Mino cells. Description: Inhibitory activity on Mino cell proliferation (MTS). The format is cell-based. The note with it: Homo sapiens, 72 h or 168 h. The method, then: (§2) The anti-tumor efficacy of the compounds was tested by measuring their inhibitory effects on OCI-LY10 and Mino cell proliferation. OCI-LY10 and Mino cells were cultured in RPM-1640 medium containing […] fetal calf serum. OCI-LY10 and Mino cells were digested, inoculated in a 96-well plate at a cell concentration of 10000 cells/well, and incubated overnight at 37° C., 5% CO2. Compounds of different concentrations (1000 nM, 4-fold dilution, 8 points) were added to the 96-well plate and incubated for 72 h or 168 h at 37° C. and […], and then 20 μL of MTS was added to each well. After incubation for 2 h, 25 μl of 10% SDS was added to each well to terminate the reaction. The absorbance at 490 nm and 650 nm were measured with a microplate reader. IC50 was calculated using GraphPad Prism 5.0.

Data set [2] in a line: Liver microsomal metabolic stability, mouse. Format: in vitro ADME. To be noted: mouse liver microsomes, NADPH, 37° C. As for the experimental part: as §1
A further data set relates to OCI-LY10 cells. Description: Inhibitory activity on OCI-LY10 cell proliferation (MTS). Format: cell-based. The note with it: Homo sapiens, 72 h or 168 h. The method, then:
as §2

Another data set can be described thus: Rat absorption test. Format: in vivo. The note with it: SD rats, intragastric 10 mg/kg, plasma. The method, then: SD Rats were used as experimental animals, and drugs were administered intragastrically at 10 mg/kg (5% DMSO+5% Solutol+90% normal saline). The blood collection time points for intragastric administration were 0.25, 0.5, 1, 2, 4, 6, 8, and 24 h. 0.3 ml of whole blood was taken, and 0.1 ml of plasma was taken after centrifugation and analyzed by LC-MS.

SMILES strings stand for the structures.

What is called DC50 is the concentration at which degradation of the target reaches its halfway point. Higher therefore signals a less potent degrader. In general, IC50 refers to the concentration that inhibits the measured activity by half. Lower therefore signals greater potency in that assay.

T1 sequence (Q06187 whole entry): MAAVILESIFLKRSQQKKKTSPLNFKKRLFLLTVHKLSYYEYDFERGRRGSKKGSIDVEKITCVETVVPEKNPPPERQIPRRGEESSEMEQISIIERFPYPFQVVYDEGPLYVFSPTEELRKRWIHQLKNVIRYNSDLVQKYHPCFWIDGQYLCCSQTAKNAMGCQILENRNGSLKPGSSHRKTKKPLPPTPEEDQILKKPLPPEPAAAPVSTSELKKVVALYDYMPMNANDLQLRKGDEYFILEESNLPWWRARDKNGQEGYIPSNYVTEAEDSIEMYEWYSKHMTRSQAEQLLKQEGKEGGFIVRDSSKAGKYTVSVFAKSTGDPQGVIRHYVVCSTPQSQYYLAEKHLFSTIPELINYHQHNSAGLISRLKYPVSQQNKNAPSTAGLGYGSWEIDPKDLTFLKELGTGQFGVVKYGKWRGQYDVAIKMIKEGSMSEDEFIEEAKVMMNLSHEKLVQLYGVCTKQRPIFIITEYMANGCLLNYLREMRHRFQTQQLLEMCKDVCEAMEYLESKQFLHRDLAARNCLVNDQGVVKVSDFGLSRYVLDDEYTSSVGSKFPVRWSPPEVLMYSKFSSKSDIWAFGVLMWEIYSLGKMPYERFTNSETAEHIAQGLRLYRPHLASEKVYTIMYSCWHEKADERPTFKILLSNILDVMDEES

For the molecule `NC(=O)c1nnc(N2CCCCC2)nc1Nc1ccc(C2CCN(CC3CCN(c4ccc5c(c4)C(=O)N(C4CCC(=O)NC4=O)C5=O)C3)CC2)cc1` (centres unmarked) [Compound 001, 5-((4-(1-((1-(2-(2,6-dioxopiperidin-3-yl)-1,3-dioxoisoindolin-5-yl)pyrrolidin-3-yl)methyl)piperidin-4-yl)phenyl)amino)-3-(piperidin-1-yl)-1,2,4-triazine-6-carboxamide], the “Thalf (min) Human” value in data set [1] was 71.37 min. This molecule also returned a DC50 on BTK below 10 nM. In addition, in “Mouse absorption test”, the DNAUC is reported as 2300 AUC (h*ng/mL)/dose (mg/kg). The IC50 in the data set on Mino cells was 5.5 nM; in the data set on OCI-LY10 cells it was 3 nM. Also, in data set [2], the “Thalf (min) Mouse” value came out at 47.13 min.
With `NC(=O)c1nnc(N2CCCCC2)nc1Nc1ccc(C2CCN(CC3CCN(c4ccc5c(c4)C(=O)N(C4CCC(=O)NC4=O)C5=O)C3)CC2)c(F)c1` (centres unmarked) [Compound 002, 5-((4-(1-((1-(2-(2,6-dioxopiperidin-3-yl)-1,3-dioxoisoindolin-5-yl)pyrrolidin-3-yl)methyl)piperidin-4-yl)-3-fluorophenyl)amino)-3-(piperidin-1-yl)-1,2,4-triazine-6-carboxamide], in data set [1], the “Thalf (min) Human” value was 120 min. Besides, the half-maximal degradation concentration (DC50) on BTK was below 10 nM. Besides, the DNAUC in “Rat absorption test” is 252 AUC (h*ng/mL)/dose (mg/kg); in “Mouse absorption test”, 2223 AUC (h*ng/mL)/dose (mg/kg). Besides, in data set [2], the “Thalf (min) Mouse” value amounted to 54 min.
On to `NC(=O)c1nnc(N2CCCCC2)nc1Nc1ccc(N2CCN(CC3CCN(c4ccc5c(c4)C(=O)N(C4CCC(=O)NC4=O)C5=O)C3)CC2)c(F)c1` (centres unmarked) [Compound 003, 5-((4-(4-((1-(2-(2,6-dioxopiperidin-3-yl)-1,3-dioxoisoindolin-5-yl)pyrrolidin-3-yl)methyl)piperazin-1-yl)-3-fluorophenyl)amino)-3-(piperidin-1-yl)-1,2,4-triazine-6-carboxamide], for which, at BTK, the DC50 was below 10 nM. The figures for the DNAUC in “Rat absorption test” and in the data set “Mouse absorption test” were 456 AUC (h*ng/mL)/dose (mg/kg) and 1648 AUC (h*ng/mL)/dose (mg/kg), respectively.
With `NC(=O)c1nnc(N2CCCCC2)nc1Nc1ccc(C2CCN(CC3CCN(c4ccc5c(c4)C(=O)N(C4CCC(=O)NC4=O)C5=O)CC3)CC2)c(F)c1` (centres unmarked) [Compound 007, 5-((4-(1-((1-(2-(2,6-dioxopiperidin-3-yl)-1,3-dioxoisoindolin-5-yl)piperidin-4-yl)methyl)piperidin-4-yl)-3-fluorophenyl)amino)-3-(piperidin-1-yl)-1,2,4-triazine-6-carboxamide], the DC50 on BTK was below 10 nM. Further, in “Mouse absorption test”, the DNAUC is 1955 AUC (h*ng/mL)/dose (mg/kg). Also, the IC50 in the data set on Mino cells was determined as 5.31 nM.
The matching figures for `NC(=O)c1nnc(N2CCCCC2)nc1Nc1ccc(N2CCC(CN3CCN(c4ccc5c(c4)C(=O)N(C4CCC(=O)NC4=O)C5=O)CC3)CC2)c(F)c1` (centres unmarked) [Compound 044, 5-((4-(4-((4-(2-(2,6-dioxopiperidin-3-yl)-1,3-dioxoisoindolin-5-yl)piperazin-1-yl)methyl)piperidin-1-yl)-3-fluorophenyl)amino)-3-(piperidin-1-yl)-1,2,4-triazine-6-carboxamide]: below 10 nM, 1941 AUC (h*ng/mL)/dose (mg/kg) and 3.46 nM.
For `NC(=O)c1nnc(N2CCCCC2)nc1Nc1ccc(N2CCC(CN3CCN(c4cc5c(cc4F)C(=O)N(C4CCC(=O)NC4=O)C5=O)CC3)CC2)cc1` (centres unmarked) [Compound 046, 5-((4-(4-((4-(2-(2,6-dioxopiperidin-3-yl)-6-fluoro-1,3-dioxoisoindolin-5-yl)piperazin-1-yl)methyl)piperidin-1-yl)phenyl)amino)-3-(piperidin-1-yl)-1,2,4-triazine-6-carboxamide], the DC50 at BTK is below 10 nM. For the same molecule, in the data set “Mouse absorption test”, the DNAUC is reported as 1867 AUC (h*ng/mL)/dose (mg/kg).
For `Cc1cc(N2CCC(CN3CCN(c4ccc(Nc5nc(N6CCCCC6)nnc5C(N)=O)cc4F)CC3)CC2)ccc1N1CCC(=O)NC1=O` [Compound 075, 5-((4-(4-((1-(4-(2,4-dioxotetrahydropyrimidin-1(2H)-yl)-3-methylphenyl)piperidin-4-yl)methyl)piperazin-1-yl)-3-fluorophenyl)amino)-3-(piperidin-1-yl)-1,2,4-triazine-6-carboxamide], at BTK, the DC50 is below 10 nM. Also, the DNAUC in the data set “Rat absorption test” is on record as 1125 AUC (h*ng/mL)/dose (mg/kg). Besides, the IC50 with Mino cells is 1.42 nM; in the data set with OCI-LY10 cells, 0.51 nM.
Consider `NC(=O)c1nnc(N2CCCCC2)nc1Nc1ccc(N2CCN(CC3CCN(c4ccc(NC5CCC(=O)NC5=O)nc4)CC3)CC2)c(F)c1` (centres unmarked) [Compound 077, 5-((4-(4-((1-(6-((2,6-dioxopiperidin-3-yl)amino)pyridin-3-yl)piperidin-4-yl)methyl)piperazin-1-yl)-3-fluorophenyl)amino)-3-(piperidin-1-yl)-1,2,4-triazine-6-carboxamide], for which, in data set [1], the “Thalf (min) Human” value turned out to be 57 min. In addition, the DC50 on BTK is below 10 nM. Further, the DNAUC in the data set “Rat absorption test” is 285 AUC (h*ng/mL)/dose (mg/kg). Also, the “Thalf (min) Mouse” value in data set [2] came to 79 min. The IC50 in the data set on OCI-LY10 cells stood at 1.59 nM.
The molecule `NC(=O)c1nnc(N2CCCCC2)nc1Nc1ccc(N2CCN(CC3CCN(c4ccc(C(=O)NC5CCC(=O)NC5=O)nc4)C3)CC2)c(F)c1` (centres unmarked) [Compound 079, 5-((4-(4-((1-(6-((2,6-dioxopiperidin-3-yl)carbamoyl)pyridin-3-yl)pyrrolidin-3-yl)methyl)piperazin-1-yl)-3-fluorophenyl)amino)-3-(piperidin-1-yl)-1,2,4-triazine-6-carboxamide] registered a DC50 at BTK below 10 nM. In addition, the DNAUC in “Rat absorption test” was 6611 AUC (h*ng/mL)/dose (mg/kg). Further, the IC50 with OCI-LY10 cells was determined as 1.15 nM.
Molecule `NC(=O)c1nnc(N2CCCCC2)nc1Nc1ccc(N2CCN(CC3CCN(c4ncc(-c5ccc(=O)[nH]n5)cc4C(F)(F)F)CC3)CC2)c(F)c1` [Compound 081, 5-((3-fluoro-4-(4-((1-(5-(6-oxo-1,6-dihydropyridazin-3-yl)-3-(trifluoromethyl)pyridin-2-yl)piperidin-4-yl)methyl)piperazin-1-yl)phenyl)amino)-3-(piperidin-1-yl)-1,2,4-triazine-6-carboxamide] displayed a DC50 on BTK below 10 nM. In the data set “Rat absorption test”, the DNAUC was 372 AUC (h*ng/mL)/dose (mg/kg).
`NC(=O)c1nnc(N2CCCCC2)nc1Nc1ccc(N2CCN(CC3CCN(c4ccc(C(=O)NC5CCC(=O)NC5=O)nc4)CC3)CC2)c(F)c1` (centres unmarked) [Compound 085, 5-((4-(4-((1-(6-((2,6-dioxopiperidin-3-yl)carbamoyl)pyridin-3-yl)piperidin-4-yl)methyl)piperazin-1-yl)-3-fluorophenyl)amino)-3-(piperidin-1-yl)-1,2,4-triazine-6-carboxamide] registered a DC50 at BTK below 10 nM. Moreover, in the data set “Rat absorption test”, the DNAUC is 579 AUC (h*ng/mL)/dose (mg/kg). Further, inhibition in the data set with OCI-LY10 cells was half-maximal at 0.57 nM (IC50).
Regarding `CC(=O)N[C@@H]1CCCN(c2nnc(C(N)=O)c(Nc3ccc(N4CCN(CC5CCN(c6ccc(C(=O)NC7CCC(=O)NC7=O)nc6)CC5)CC4)c(F)c3)n2)C1` (stereo partly drawn) [Compound 092, 3-((R)-3-acetamidopiperidin-1-yl)-5-((4-(4-((1-(6-((2,6-dioxopiperidin-3-yl)carbamoyl)pyridin-3-yl)piperidin-4-yl)methyl)piperazin-1-yl)-3-fluorophenyl)amino)-1,2,4-triazine-6-carboxamide], the “Thalf (min) Human” value in data set [1] is reported as 41 min. The DC50 on BTK is below 10 nM. The IC50 in the data set with Mino cells turned out to be 3.28 nM; in the data set on OCI-LY10 cells, 0.24 nM. The “Thalf (min) Mouse” value in data set [2] is given as 90 min.

Source of the values: patent US20260167620A1, “MULTIFUNCTIONAL COMPOUND CAPABLE OF DEGRADING BTK KINASE, AND COMPOSITION AND USE” (HANGZHOU HEALZEN THERAPEUTICS CO., LTD., priority 2021, published 2026).
